The record followed here is patent EP0595557A1, “New substituted azetidinones as anti-inflammatory and antidegenerative agents” (MERCK & CO. INC., priority 1992, dated 1994).

SMILES strings stand for the structures.

This assay has as its target T1, Human Polymorphonuclear Leukocyte Elastase (Homo sapiens, UniProt P08246).
T1 construct: Crude extract of human polymorphonuclear leukocytes (PMN) containing elastase activity; from tissue; host or cells: human polymorphonuclear leukocytes (crude extract)
T1 sequence (P08246 30-267): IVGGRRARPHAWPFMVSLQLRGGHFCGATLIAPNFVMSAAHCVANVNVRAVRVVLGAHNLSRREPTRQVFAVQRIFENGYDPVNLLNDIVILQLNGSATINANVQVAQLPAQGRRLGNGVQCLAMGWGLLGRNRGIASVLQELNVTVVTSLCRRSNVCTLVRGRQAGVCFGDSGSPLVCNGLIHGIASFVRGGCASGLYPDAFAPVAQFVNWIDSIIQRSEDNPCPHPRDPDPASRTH
In words: Enzyme assay for inhibition of human polymorphonuclear leukocyte elastase via hydrolysis of Boc-AAPAN or Boc-AAPVN. Format: biochemical. To be noted: expressed to the nearest thousand; for kinact/KI: pH 7.5, second order rate constant for inactivation of the enzyme, read-out: Kobs/[I]. In outline:
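Crude human PMN extract as enzyme source, with 0.2 mM Boc-AAPAN in 0.05M TES buffer pH 7.5. Inhibitors in DMSO were added to substrate before the extract, and rate was followed as ΔOD/min at 410 mµ. Values are kobs/I, the second-order inactivation rate constant (per mole per second).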

In the case of `CCC[C@@H](NC(=O)N1C(=O)C(CC)(CC)[C@@H]1Oc1ccc(C(=O)NCCN(CC)CC)cc1)c1ccc(C)cc1` [Compound 77], the kinact/KI came to 1.19e+06 M⁻¹ s⁻¹.

On to `CCC[C@@H](NC(=O)N1C(=O)C(CC)(CC)[C@@H]1Oc1ccc(C(=O)NCCN2CCOCC2)cc1)c1ccc(C)cc1` [Compound 78], for which the kinact/KI was found to be 1.84e+06 M⁻¹ s⁻¹.

Take `CCC[C@@H](NC(=O)N1C(=O)C(CC)(CC)[C@@H]1Oc1ccc(C(=O)N(C)CCN2CCOCC2)cc1)c1ccc(C)cc1` [Compound 79]: the kinact/KI is 2.12e+06 M⁻¹ s⁻¹.

Turning to `CCC[C@@H](NC(=O)N1C(=O)C(CC)(CC)[C@@H]1Oc1ccc(C(=O)N(C)CCN(CCOC)CCOC)cc1)c1ccc(C)cc1` [Compound 80], the kinact/KI was 2.08e+06 M⁻¹ s⁻¹.

On to `CCC[C@@H](NC(=O)N1C(=O)C(CC)(CC)[C@@H]1Oc1ccc(C(=O)N(C)CCN(CC)CC)cc1)c1ccc(C)cc1` [Compound 81], for which the kinact/KI was 2.19e+06 M⁻¹ s⁻¹.

On to `CCC[C@@H](NC(=O)N1C(=O)C(CC)(CC)[C@@H]1Oc1ccc(C(=O)N(CCN(C)C)c2ccccc2)cc1)c1ccc(C)cc1` [Compound 82], for which the kinact/KI worked out at 2.5e+06 M⁻¹ s⁻¹.

Take `CCC[C@@H](NC(=O)N1C(=O)C(CC)(CC)[C@@H]1Oc1ccc(C(=O)N(C)CCCN(C)C)cc1)c1ccc(C)cc1` [Compound 83]: the kinact/KI was 1.8e+06 M⁻¹ s⁻¹.

On to `CCC[C@@H](NC(=O)N1C(=O)C(CC)(CC)[C@@H]1Oc1ccc(C(=O)NCCN(C(C)C)C(C)C)cc1)c1ccc(C)cc1` [Compound 84], for which the kinact/KI came to 2.1e+06 M⁻¹ s⁻¹.

As to `CCC[C@@H](NC(=O)N1C(=O)C(CC)(CC)[C@@H]1Oc1ccc(C(=O)N(C)CC[N+](C)(C)[O-])cc1)c1ccc(C)cc1` [Compound 85], the kinact/KI came out at 1.59e+06 M⁻¹ s⁻¹.

Consider `CCC[C@@H](NC(=O)N1C(=O)C(CC)(CC)[C@@H]1Oc1ccc(C(=O)N(C)CCN(C(C)C)C(C)C)cc1)c1ccc(C)cc1` [Compound 86], for which the kinact/KI stood at 2.45e+06 M⁻¹ s⁻¹.

With `CCC[C@@H](NC(=O)N1C(=O)C(CC)(CC)[C@@H]1Oc1ccc(C(=O)NS(=O)(=O)CCN2CCOCC2)cc1)c1ccc(C)cc1` [Compound 87], the kinact/KI stood at 775000 M⁻¹ s⁻¹.

On to `CCC[C@@H](NC(=O)N1C(=O)C(CC)(CC)[C@@H]1Oc1ccc(C(=O)NS(=O)(=O)CCN(C)C)cc1)c1ccc(C)cc1` [Compound 88], for which the kinact/KI was 788000 M⁻¹ s⁻¹.

With `CCC[C@@H](NC(=O)N1C(=O)C(CC)(CC)[C@@H]1Oc1ccc(C(=O)NCCc2cnc[nH]2)cc1)c1ccc(C)cc1` [Compound 89], the kinact/KI worked out at 2.09e+06 M⁻¹ s⁻¹.

For `CCC[C@@H](NC(=O)N1C(=O)C(CC)(CC)[C@@H]1Oc1ccc(C(=O)NCCN2CCCCC2)cc1)c1ccc(C)cc1` [Compound 90], the kinact/KI came to 941000 M⁻¹ s⁻¹.

`CCC[C@@H](NC(=O)N1C(=O)C(CC)(CC)[C@@H]1Oc1ccc(C(=O)N(C)CCN2CCCCC2)cc1)c1ccc(C)cc1` [Compound 91]: the kinact/KI was found to be 892000 M⁻¹ s⁻¹.

Consider `CCC[C@@H](NC(=O)N1C(=O)C(CC)(CC)[C@@H]1Oc1ccc(C(=O)N(C)CCNC)cc1)c1ccc(C)cc1` [Compound 92], for which the kinact/KI came to 1.45e+06 M⁻¹ s⁻¹.

On to `CCC[C@@H](NC(=O)N1C(=O)C(CC)(CC)[C@@H]1Oc1ccc(C(=O)NCCN2CCCC2)cc1)c1ccc(C)cc1` [Compound 94], for which the kinact/KI came to 1.24e+06 M⁻¹ s⁻¹.

As to `CCC[C@@H](NC(=O)N1C(=O)C(CC)(CC)[C@@H]1Oc1ccc(C(=O)N(C)CCN2CCCC2)cc1)c1ccc(C)cc1` [Compound 95], the kinact/KI is 1e+06 M⁻¹ s⁻¹.

In the case of `CCC[C@@H](NC(=O)N1C(=O)C(CC)(CC)[C@@H]1Oc1ccc(C(=O)NCCn2cncn2)cc1)c1ccc(C)cc1` [Compound 96], the kinact/KI amounted to 1.4e+06 M⁻¹ s⁻¹.

`CCC[C@@H](NC(=O)N1C(=O)C(CC)(CC)[C@@H]1Oc1ccc(C(=O)NCCn2ccnc2)cc1)c1ccc(C)cc1` [Compound 97]: the kinact/KI stood at 1.07e+06 M⁻¹ s⁻¹.

As for `CCC[C@@H](NC(=O)N1C(=O)C(CC)(CC)[C@@H]1Oc1ccc(C(=O)NCCN2CC3CCC(CC3)C2)cc1)c1ccc(C)cc1` [Compound 98], the kinact/KI was 3.04e+06 M⁻¹ s⁻¹.

For `CCC[C@@H](NC(=O)N1C(=O)C(CC)(CC)[C@@H]1Oc1ccc(C(=O)NCCN2CCC3(CCCCC3)CC2)cc1)c1ccc(C)cc1` [Compound 99], the kinact/KI was 2.58e+06 M⁻¹ s⁻¹.

`CCC[C@@H](NC(=O)N1C(=O)C(CC)(CC)[C@@H]1Oc1ccc(C(=O)NCCn2ncnn2)cc1)c1ccc(C)cc1` [Compound 100]: the kinact/KI was found to be 2.01e+06 M⁻¹ s⁻¹.

`CCC[C@@H](NC(=O)N1C(=O)C(CC)(CC)[C@@H]1Oc1ccc(C(=O)NCCn2cnnn2)cc1)c1ccc(C)cc1` [Compound 101]: the kinact/KI turned out to be 2.05e+06 M⁻¹ s⁻¹.

`CCCC(NC(=O)N1C(=O)C(CC)(CC)C1Oc1ccc(C(=O)NCC(=O)N2CCCC2C(=O)NCc2ccccc2)cc1)c1ccc(C)cc1` (stereo not shown) [Compound 102]: the kinact/KI is 2.75e+06 M⁻¹ s⁻¹.

Turning to `CCC[C@@H](NC(=O)N1C(=O)C(CC)(CC)[C@@H]1Oc1ccc(C(=O)N(C)CCN2CC3CCC(CC3)C2)cc1)c1ccc(C)cc1` [Compound 103], the kinact/KI amounted to 3e+06 M⁻¹ s⁻¹.

Consider `CCC[C@@H](NC(=O)N1C(=O)C(CC)(CC)[C@@H]1Oc1ccc(C(=O)N(C)CCc2c[nH]cn2)cc1)c1ccc(C)cc1` [Compound 104], for which the kinact/KI came to 2.39e+06 M⁻¹ s⁻¹.

In the case of `CCC[C@@H](NC(=O)N1C(=O)C(CC)(CC)[C@@H]1Oc1ccc(C(=O)N(C)CCN(C)C(C)=O)cc1)c1ccc(C)cc1` [Compound 105], the kinact/KI is 2.4e+06 M⁻¹ s⁻¹.

Consider `CCC[C@@H](NC(=O)N1C(=O)C(CC)(CC)[C@@H]1Oc1ccc(C(=O)N(C)CCN(C)C(=O)NC)cc1)c1ccc(C)cc1` [Compound 106], for which the kinact/KI was found to be 2.49e+06 M⁻¹ s⁻¹.

Regarding `CCC[C@@H](NC(=O)N1C(=O)C(CC)(CC)[C@@H]1Oc1ccc(C(=O)N(C)CCN(C)S(C)(=O)=O)cc1)c1ccc(C)cc1` [Compound 107], the kinact/KI is 2.53e+06 M⁻¹ s⁻¹.

In the case of `CCC[C@@H](NC(=O)N1C(=O)C(CC)(CC)[C@@H]1Oc1ccc(C(=O)N(C)CCN2CC3CCC(CC3)C2)cc1)c1ccc(C)cc1` [Compound 108], the “Kobs/[I]” value (second order rate constant for inactivation of the enzyme, pH 7.5) was 2,953,000 per mole per second.

Turning to `CCC[C@@H](NC(=O)N1C(=O)C(CC)(CC)[C@@H]1Oc1ccc(C(=O)NCCN2CCS(=O)(=O)CC2)cc1)c1ccc(C)cc1` [Compound 109], the kinact/KI was found to be 1.28e+06 M⁻¹ s⁻¹.

For `CCC[C@@H](NC(=O)N1C(=O)C(CC)(CC)[C@@H]1Oc1ccc(C(=O)NCc2ccc(N(C)C)cc2)cc1)c1ccc(C)cc1` [Compound 110], the kinact/KI was 5.6e+06 M⁻¹ s⁻¹.

For `CCC[C@@H](NC(=O)N1C(=O)C(CC)(CC)[C@@H]1Oc1ccc(C(=O)Nc2cccc(N(C)C)c2)cc1)c1ccc(C)cc1` [Compound 111], the kinact/KI came out at 2.29e+06 M⁻¹ s⁻¹.

Turning to `CCC[C@@H](NC(=O)N1C(=O)C(CC)(CC)[C@@H]1Oc1ccc(C(=O)N(C)CCN2CCS(=O)(=O)CC2)cc1)c1ccc(C)cc1` [Compound 112], the kinact/KI was 1.6e+06 M⁻¹ s⁻¹.

With `CCC[C@@H](NC(=O)N1C(=O)C(CC)(CC)[C@@H]1Oc1ccc(C(=O)Nc2ccc(N(C)C)cc2)cc1)c1ccc(C)cc1` [Compound 113], the kinact/KI came to 2.59e+06 M⁻¹ s⁻¹.

`CCC[C@@H](NC(=O)N1C(=O)C(CC)(CC)[C@@H]1Oc1ccc(C(=O)NCCc2nccn2Cc2ccccc2)cc1)c1ccc(C)cc1` [Compound 114]: the kinact/KI is 3.85e+06 M⁻¹ s⁻¹.

`CCC[C@@H](NC(=O)N1C(=O)C(CC)(CC)[C@@H]1Oc1ccc(C(=O)N(C)CCc2ccccn2)cc1)c1ccc(C)cc1` [Compound 115]: the kinact/KI was determined as 2.27e+06 M⁻¹ s⁻¹.

Regarding `CCC[C@@H](NC(=O)N1C(=O)C(CC)(CC)[C@@H]1Oc1ccc(C(=O)N(C)C2CN3CCC2CC3)cc1)c1ccc(C)cc1` (stereo partly shown) [Compound 116], the kinact/KI turned out to be 3.48e+06 M⁻¹ s⁻¹.

For `CCC[C@@H](NC(=O)N1C(=O)C(CC)(CC)[C@@H]1Oc1ccc(C(=O)NCCN2CCN(C(=O)OCc3ccccc3)CC2)cc1)c1ccc(C)cc1` [Compound 117], the kinact/KI came out at 6.23e+06 M⁻¹ s⁻¹.

As for `CCC[C@@H](NC(=O)N1C(=O)C(CC)(CC)[C@@H]1Oc1ccc(C(=O)NC2CN(CC)N(CC)C2)cc1)c1ccc(C)cc1` [Compound 118], the kinact/KI worked out at 1e+06 M⁻¹ s⁻¹.

Consider `CCC[C@@H](NC(=O)N1C(=O)C(CC)(CC)[C@@H]1Oc1ccc(C(=O)N2CCC[C@H]2CN2CCCC2)cc1)c1ccc(C)cc1` [Compound 119], for which the kinact/KI is 2.69e+06 M⁻¹ s⁻¹.

Take `CCC[C@@H](NC(=O)N1C(=O)C(CC)(CC)[C@@H]1Oc1ccc(C(=O)NCCN2CCC(O)CC2)cc1)c1ccc(C)cc1` [Compound 120, [S-(R+,S*)]-3,3-diethyl-2-[4-[[[2-(4-hydroxy-1-piperidinyl)ethyl]amino]carbonyl]phenoxy]-N-[1-(4-methyl-phenyl)butyl]-4-oxo-1-azetidine-carboxamide]: the kinact/KI amounted to 1.73e+06 M⁻¹ s⁻¹.

For the molecule `CCC[C@@H](NC(=O)N1C(=O)C(CC)(CC)[C@@H]1Oc1ccc(C(=O)NCCN2CCCCCC2)cc1)c1ccc(C)cc1` [Compound 121], the kinact/KI was found to be 2.07e+06 M⁻¹ s⁻¹.

For the molecule `CCC[C@@H](NC(=O)N1C(=O)C(CC)(CC)[C@@H]1Oc1ccc(C(=O)N(C)CCN2CCCCCC2)cc1)c1ccc(C)cc1` [Compound 122], the kinact/KI came out at 2.9e+06 M⁻¹ s⁻¹.

As for `CCC[C@@H](NC(=O)N1C(=O)C(CC)(CC)[C@@H]1Oc1ccc(C(=O)NCCN2CCCC(O)C2)cc1)c1ccc(C)cc1` (stereo partly shown) [Compound 123], the kinact/KI is 1.53e+06 M⁻¹ s⁻¹.

As for `CCC[C@@H](NC(=O)N1C(=O)C(CC)(CC)[C@@H]1Oc1ccc(C(=O)N(C)CCN2CCCC(O)C2)cc1)c1ccc(C)cc1` (stereo partly shown) [Compound 124], the kinact/KI is 1.96e+06 M⁻¹ s⁻¹.

Take `CCC[C@@H](NC(=O)N1C(=O)C(CC)(CC)[C@@H]1Oc1ccc(C(=O)N(C)CCN(C)Cc2ccccc2)cc1)c1ccc(C)cc1` [Compound 125]: the kinact/KI was determined as 2.05e+06 M⁻¹ s⁻¹.

`CCC[C@@H](NC(=O)N1C(=O)C(CC)(CC)[C@@H]1Oc1ccc(C(=O)N(C)CCN2CCC(OCc3ccccc3)CC2)cc1)c1ccc(C)cc1` [Compound 126]: the kinact/KI turned out to be 3.48e+06 M⁻¹ s⁻¹.
